# In patent publication US20250215029A1 (Recludix Pharma, Inc., priority 2022, published 2025):
# Read-outs that look alike come from different tables or passages of the source.
# Tests used:
# [1] = target: T1, Recombinant STAT6 protein (STAT6 (W123-T658)) (Homo sapiens, UniProt P42226); experiment: STAT6 Fluorescence Polarization (FP) Assay; assay type: binding; settings: 45-minute incubation
# T1 construct: Recombinant STAT6 protein (STAT6 (W123-T658))
# T1 sequence (P42226 123-658): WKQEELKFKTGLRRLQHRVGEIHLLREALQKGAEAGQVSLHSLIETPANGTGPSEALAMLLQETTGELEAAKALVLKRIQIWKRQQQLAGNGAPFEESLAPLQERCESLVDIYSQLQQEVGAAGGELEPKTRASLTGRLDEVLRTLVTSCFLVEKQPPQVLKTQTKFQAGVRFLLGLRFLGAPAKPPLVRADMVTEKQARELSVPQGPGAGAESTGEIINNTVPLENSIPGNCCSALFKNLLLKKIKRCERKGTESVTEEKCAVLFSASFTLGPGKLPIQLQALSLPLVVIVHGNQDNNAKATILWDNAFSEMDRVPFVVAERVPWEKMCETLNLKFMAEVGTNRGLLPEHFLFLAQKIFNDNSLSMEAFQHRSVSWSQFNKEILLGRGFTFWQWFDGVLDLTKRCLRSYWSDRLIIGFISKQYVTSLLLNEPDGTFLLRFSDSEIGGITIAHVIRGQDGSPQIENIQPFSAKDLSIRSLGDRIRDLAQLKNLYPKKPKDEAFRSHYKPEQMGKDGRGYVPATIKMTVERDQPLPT
# Outline: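 Competitive FP binding: recombinant STAT6 (W123-T658) at 250 nM, labeled phosphotyrosine peptide at 2 nM, compounds at 1% DMSO, 45 min at RT before reading. IC50 values were obtained from nonlinear regression of mP versus log concentration.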
# [2] = target: T2, Recombinant STAT3 protein (STAT3 (G127-I722)) (Homo sapiens, UniProt P40763); experiment: STAT3 Fluorescence Polarization (FP) Assay; assay type: binding; settings: probe 5-FAM-GpYLPQTV-NH2 2 nM, 45-minute incubation
# T2 construct: Recombinant STAT3 protein (STAT3 (G127-I722))
# T2 sequence (P40763 127-722): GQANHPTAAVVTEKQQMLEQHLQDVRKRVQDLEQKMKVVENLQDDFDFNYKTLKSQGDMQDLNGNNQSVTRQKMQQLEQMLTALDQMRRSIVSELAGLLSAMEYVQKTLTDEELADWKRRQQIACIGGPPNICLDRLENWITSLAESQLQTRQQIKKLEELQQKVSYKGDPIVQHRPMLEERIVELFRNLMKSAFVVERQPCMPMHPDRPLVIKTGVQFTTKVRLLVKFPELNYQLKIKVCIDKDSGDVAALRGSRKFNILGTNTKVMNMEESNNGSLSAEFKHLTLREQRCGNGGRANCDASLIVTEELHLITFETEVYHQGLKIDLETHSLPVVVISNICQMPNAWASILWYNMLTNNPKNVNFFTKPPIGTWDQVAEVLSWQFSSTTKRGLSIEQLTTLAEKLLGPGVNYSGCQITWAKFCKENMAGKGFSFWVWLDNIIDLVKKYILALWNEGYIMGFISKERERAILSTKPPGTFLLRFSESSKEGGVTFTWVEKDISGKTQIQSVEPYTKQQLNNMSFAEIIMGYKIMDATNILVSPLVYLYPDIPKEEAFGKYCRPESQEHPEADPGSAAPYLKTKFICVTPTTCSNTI
# Outline: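 Displacement of a 2 nM 5-FAM-labelled pY peptide (GpYLPQTV) from 25 nM recombinant STAT3 (G127-I722) was monitored by fluorescence polarization. Incubation lasted 45 min at room temperature in pH 7.4 HEPES buffer containing 1% DMSO.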
# [3] = STAT6 (W123-T658) 250 nM, probe 5-FAM-Ap[…]-NH2 2 nM, read-out: STAT6 (FP assay IC50 class)
# [4] = STAT3 (G127-I722) 25 nM, read-out: STAT3 (FP assay IC50 class)
# [5] = STAT6 250 nM, probe 5-FAM-Ap[…]-NH2 2 nM, read-out: STAT6 (FP assay IC50)
# [6] = STAT3 25 nM, read-out: STAT3 (FP assay IC50)
"IC50 [1, 3] [nM]","IC50 [2, 4] [nM]","IC50 [1, 5] [nM]","IC50 [2, 6] [nM]",Compound,"IC50 ([1]; STAT6 (W123-T658) 250 nM, probe 5-FAM-ApYKPFQDLI-NH2 2 nM, read-out: STAT6 (FP assay IC50 class)) [nM]"
3000 to 30000,1000 to 10000,–,–,"O=Cc1ccncc1C1CN(C(=O)[C@@H]2CC[C@@H]3CCC[C@H](NC(=O)c4cc5cc(CP(=O)(O)O)ccc5s4)C(=O)N32)C1 [Compound 545, ((2-(((3S,6S,9aS)-3-(3-(4-formylpyridin-3-yl)azetidine-1-carbonyl)-5-oxooctahydro-1H-pyrrolo[1,2-a]azepin-6-yl)carbamoyl)benzo[b]thiophen-5-yl)methyl)phosphonic acid]",–
3000 to 30000,100 to 1000,–,–,"O=C(N[C@H]1CCC[C@H]2CC[C@@H](C(=O)N3CC(c4ccncc4F)C3)N2C1=O)c1cc2cc(C(F)P(=O)(O)O)ccc2s1 (stereo partly drawn) [Compound 610, (fluoro(2-(((3S,6S,9aS)-3-(3-(3-fluoropyridin-4-yl)azetidine-1-carbonyl)-5-oxooctahydro-1H-pyrrolo[1,2-a]azepin-6-yl)carbamoyl)benzo [b]thiophen-5-yl)methyl) phosphonic acid]",–
300 to 3000,100 to 1000,–,–,"Cc1cncnc1C1CN(C(=O)[C@@H]2CC[C@@H]3CCC[C@H](NC(=O)c4cc5cc(C(F)(F)P(=O)(O)O)ccc5s4)C(=O)N32)C1 [Compound 652, (difluoro(2-(((3S,6S,9aS)-3-(3-(5-methylpyrimidin-4-yl)azetidine-1-carbonyl)-5-oxooctahydro-1H-pyrrolo[1,2-a]azepin-6-yl)carbamoyl)benzo [b]thiophen-5-yl)methyl) phosphonic acid]",–
3000 to 30000,100 to 1000,–,–,"Cn1ccc(C2CN(C(=O)[C@@H]3CC[C@@H]4CCC[C@H](NC(=O)c5cc6cc([C@@H](F)P(=O)(O)O)ccc6s5)C(=O)N43)C2)cc1=O (single isomer, unassigned) [Compound 708]",–
3000 to 30000,1000 to 10000,–,–,"O=C(N[C@H]1CCCC[C@H]2CC[C@@H](C(=O)N[C@H]3COC[C@H]3F)N2C1=O)c1cc2cc(C(F)(F)P(=O)(O)O)ccc2s1 (relative stereo) [Compound 1111, (difluoro(2-(((3S,6S,10aS)-3-(((rel-trans)-4-fluorotetrahydrofuran-3-yl)carbamoyl)-5-oxodecahydropyrrolo[1,2-a]azocin-6-yl)carbamoyl)benzo[b]thiophen-5-yl)methyl)phosphonic acid]",–
–,–,300 to 3000,100 to 1000,"Cn1ccc(C2CN(C(=O)[C@@H]3CC[C@@H]4CCCC[C@H](NC(=O)c5cc6cc(C(F)(F)P(=O)(O)O)ccc6s5)C(=O)N43)C2)n1 [Compound 65, (difluoro(2-(((3S,6S,10S)-3-(3-(1-methyl-1H-pyrazol-3-yl)azetidine-1-carbonyl)-5-oxodecahydropyrrolo [1,2-a]azocin-6-yl)carbamoyl)benzo[b]thiophen-5-yl)methyl) phosphonic acid]",–
300 to 3000,100 to 1000,–,–,"C[C@H]1C[C@H]2CC[C@@H](C(=O)N3C[C@@H](C#N)[C@H](c4ccccc4)C3)N2C(=O)[C@@H](NC(=O)c2cc3cc(C(F)(F)P(=O)(O)O)ccc3s2)C1 (single isomer, unassigned) [Compound 782]",–
300 to 3000,100 to 1000,–,–,"CC(NC(=O)[C@@H]1CC[C@@H]2CCCC[C@H](NC(=O)c3cc4cc(C(F)(F)P(=O)(O)O)ccc4s3)C(=O)N21)c1n[nH]c2ncccc12 (stereo partly drawn) [Compound 1107, ((2-(((3S,6S,10aS)-3-((1-(1H-pyrazolo[3,4-b]pyridin-3-yl)ethyl)carbamoyl)-5-oxodecahydropyrrolo[1,2-a]azocin-6-yl)carbamoyl)benzo[b]thiophen-5-yl)difluoromethyl)phosphonic acid]",–

# Second part, the compound before the results:
Compound,"IC50 [1, 3] [nM]","IC50 [2, 4] [nM]","IC50 [1, 5] [nM]","IC50 [2, 6] [nM]","IC50 ([1]; STAT6 (W123-T658) 250 nM, probe 5-FAM-ApYKPFQDLI-NH2 2 nM, read-out: STAT6 (FP assay IC50 class)) [nM]"
"CCC[C@@H]1CC[C@H](NC(=O)c2cc3cc([C@H](F)P(=O)(O)O)ccc3s2)C(=O)N2[C@H](CC[C@H]2C(=O)N2CC(c3cnccc3N3CCC3)C2)C1 [Compound 930, ((R)-(2-(((3S,6S,9R,10aR)-3-(3-(4-(azetidin-1-yl)pyridin-3-yl)azetidine-1-carbonyl)-5-oxo-9-propyldecahydro-pyrrolo[1,2-a]azocin-6-yl)carbamoyl)benzo [b]thiophen-5-yl)fluoromethyl) phosphonic acid]",3000 to 30000,100 to 1000,–,–,–
"O=C(N[C@H]1CCC[C@H]2CC[C@@H](C(=O)NCc3cnc4[nH]cnc4c3)N2C1=O)c1cc2cc(C(F)(F)P(=O)(O)O)ccc2s1 [Compound 1118, ((2-(((3S,6S,9aS)-3-(((3H-imidazo[4,5-b]pyridin-6-yl)methyl)carbamoyl)-5-oxooctahydro-1H-pyrrolo[1,2-a]azepin-6-yl)carbamoyl)benzo[b]thiophen-5-yl)difluoromethyl)phosphonic acid]",300 to 3000,< 100,–,–,–
"N=S1(=O)CC2(CN(C(=O)[C@@H]3CC[C@@H]4CCCC[C@H](NC(=O)c5cc6cc(C(F)(F)P(=O)(O)O)ccc6s5)C(=O)N43)C2)C1 [Compound 70, (difluoro(2-(((3S,6S,10aS)-3-(2-imino-2-oxido-2l6-thia-6-azaspiro[3.3]heptane-6-carbonyl)-5-oxodecahydropyrrolo [1,2-a]azocin-6-yl)carbamoyl)benzo[b]thiophen-5-yl)methyl) phosphonic acid]",–,–,3000 to 30000,100 to 1000,–
"O=C(N[C@H]1CCCC[C@H]2CC[C@@H](C(=O)N3CCC(c4cccnc4)C3)N2C1=O)c1ccc2ccc(C(F)(F)P(=O)(O)O)cc2c1 (stereo partly drawn) [Compound 218, (difluoro(7-(((3S,6S,10aS)-5-oxo-3-(3-(pyridin-3-yl)pyrrolidine-1-carbonyl)decahydropyrrolo[1,2-a]azocin-6-yl)carbamoyl)naphthalen-2-yl)methyl)phosphonic acid]",≤ 300,100 to 1000,–,–,–
"O=C(N[C@H]1CCCC[C@H]2CC[C@@H](C(=O)N3CC4(CC(=O)c5nccn54)C3)N2C1=O)c1cc2cc(C(F)(F)P(=O)(O)O)ccc2s1 [Compound 774, (difluoro(2-(((3S,6S,10aS)-5-oxo-3-(7′-oxo-6′,7′-dihydrospiro[azetidine-3,5′-pyrrolo[1,2-a]imidazole]-1-carbonyl)decahydropyrrolo[1,2-a]azocin-6-yl)carbamoyl)benzo [b]thiophen-5-yl)methyl) phosphonic acid]",3000 to 30000,< 100,–,–,–
"O=C(N[C@H]1CCCC[C@H]2CC[C@@H](C(=O)N[C@H]3COCC3F)N2C1=O)c1cc2cc(C(F)(F)P(=O)(O)O)ccc2s1 (relative stereo) [Compound 1109, (difluoro(2-(((3S,6S,10aS)-3-(((rel-trans)-4-fluorotetrahydrofuran-3-yl)carbamoyl)-5-oxodecahydropyrrolo[1,2-a]azocin-6-yl)carbamoyl)benzo[b]thiophen-5-yl)methyl)phosphonic acid]",300 to 3000,100 to 1000,–,–,–
"(difluoro(2- (((3S,6S,10aS)-3- ((1R,5S,6S)-6-(5- methyl-1,3,4- oxadiazol-2-yl)-3- azabicyclo[3.1.0] hexane-3- carbonyl)-5- oxodecahydropyrrolo [1,2-a]azocin-6- yl)carbamoyl)benzo [b]thiophen-5- yl)methyl)phosphon ic acid [Compound 804]",–,100 to 1000,–,–,300 to 3000
"O=C(N[C@H]1CCCC[C@H]2CC[C@@H](C(=O)N3Cc4cn(C5CC5)nc4C3)N2C1=O)c1cc2cc(C(F)(F)P(=O)(O)O)ccc2s1 [Compound 794, ((2-(((3S,6S,10aS)-3-(2-cyclopropyl-2,4,5,6-tetrahydropyrrolo[3,4-c]pyrazole-5-carbonyl)-5-oxodecahydropyrrolo [1,2-a]azocin-6-yl)carbamoyl)benzo [b]thiophen-5-yl)difluoromethyl) phosphonic acid]",3000 to 30000,100 to 1000,–,–,–
"COc1cncc([C@H]2CN(C(=O)[C@@H]3CC[C@@H]4CCCC[C@H](NC(=O)c5cc6cc([C@H](F)P(=O)(O)O)ccc6s5)C(=O)N43)C3(CC3)[C@@H]2C#N)c1 (single isomer, unassigned) [Compound 848]",300 to 3000,1000 to 10000,–,–,–
"O=C(N[C@H]1CCC[C@H]2CC[C@@H](C(=O)N3CC(c4cnccc4F)C3)N2C1=O)c1cc2cc([C@@H](F)P(=O)(O)O)ccc2s1 (single isomer, unassigned) [Compound 599]",300 to 3000,< 100,–,–,–
"COc1c(C2CN(C(=O)[C@@H]3CC[C@@H]4CCC[C@H](NC(=O)c5cc6cc([C@@H](F)P(=O)(O)O)ccc6s5)C(=O)N43)C2)ccnc1Cl (single isomer, unassigned) [Compound 698]",3000 to 30000,100 to 1000,–,–,–
